Test [1] addresses T1, LCMV endonuclease domain (ENDO, ENDO-WT) (Lymphocytic choriomeningitis virus (strain Armstrong), UniProt P14240, D119A).
T1 construct: gene L; N-terminal endonuclease domain of L (residues 1-196), N-terminal hexahistidine tag, pDEST14, E. coli Rosetta (DE3) pLysS; IMAC, Q Sepharose, Superdex 200
The experiment in a line: biochemical. The format is binding.

Test [2] has as its target T2, LCMV endonuclease domain (ENDO, ENDO-WT) (Lymphocytic choriomeningitis virus (strain Armstrong), UniProt P14240).
T2 construct: gene L; N-terminal endonuclease domain of L (residues 1-196), N-terminal hexahistidine tag, pDEST14, E. coli Rosetta (DE3) pLysS; IMAC, Q Sepharose, Superdex 200
The experiment in a line: biochemical. The format is binding.

These results are taken from article PMC5947727, “Crystal structures of Lymphocytic choriomeningitis virus endonuclease domain complexed with diketo-acid ligands” (IUCrJ, 2018).

The term Kd denotes the equilibrium constant for the complex coming apart. Read a high Kd as lower affinity.

In the case of `O=C(O)C(=O)CC(=O)c1ccccc1` [compound 1, 2,4-dioxo-4-phenylbutanoic acid], the Kd came out at 18800 ± 3880 nM in test [1] and 5380 ± 2060 nM in test [2].
In the same order, the values of `O=C(O)/C(O)=C/C(=O)C1(Cc2ccc(Cl)cc2)CCN(Cc2ccccc2)CC1` [compound 2, (Z)-4-{1-benzyl-4-[(4-chlorophenyl)methyl]piperidin-4-yl}-2-hydroxy-4-oxobut-2-enoic acid] are 890 ± 60 nM and 510 ± 110 nM.
Consider `O=C(O)C(O)=CC(=O)c1ccc(-c2ccccc2)cc1` [compound 3, 2-hydroxy-4-(biphenyl-4-yl)-4-oxobut-2-enoic acid], for which, in test [2], the Kd amounted to 50 ± 20 nM.
Same read-out and setting: to `O=C(O)C(O)=CC(=O)c1ccc2ccc3ccccc3c2c1` [compound 4, 2-hydroxy-4-oxo-4-(phenanthren-3-yl)but-2-enoic acid] belongs 250 ± 70 nM.
